The values that follow come from patent publication US9409898B2, “Substituted pyrazole compounds as CRAC modulators” (LUPIN LIMITED, priority 2012, dated 2016).

For the assay, the system named is IL-2 secretion. The assay can be described thus: Inhibition of IL-2 secretion in PHA-stimulated Jurkat T cells (ELISA). Format: cell-based. The settings on record: Homo sapiens, PHA stimulation, 20 to 24 hours, IL-2 by ELISA. The procedure: The CRAC channel modulatory activity of the compounds were thus evaluated by measuring the secretion of IL-2 by antigen stimulated T-cells in vitro. Alternatively, such activity can also be evaluated by assay methods known to one skilled in the art.
Inhibition of IL-2 secretion: Jurkat T cells were seeded at a density of 0.5 to 1 million cells per well in RPMI medium. Test compounds from this invention were added to the cells at different concentrations. This was followed by the addition of PHA, a T cell mitogen after 10 minutes. The cells were then incubated for 20 to 24 hours in a CO2 incubator at 37° C. After incubation with the compounds, cells were centrifuged, the supernatant was collected and processed for ELISA to quantitate the amount of IL-2 secreted. A commercial ELISA kit (R&D Systems, Inc. Minneapolis, Minn., USA) was used to estimate the IL-2 concentrations. Amount of IL-2 secreted by cells stimulated with PHA was considered as a 100% maximal signal and the decrease in amount of IL-2 secreted by cells treated with the test compounds was expressed as percent inhibition of the maximal signal. The dose response data was analyzed using 4-parametric sigmoidal dose response (variable slope) curve—fit.

Regarding `CC1(C)COC(c2cc(C(F)(F)F)n(-c3ccc(NCc4c(F)cccc4F)cn3)n2)=N1` [Example 28, N-(2,6-Difluorobenzyl)-6-(3-(4,4-dimethyl-4,5-dihydrooxazol-2-yl)-5-(trifluoromethyl)-1H-pyrazol-1-yl)pyridin-3-amine], the IC50 lay in the range of 100 to 1000 nM. For `Cn1nc(-c2cc(C3CC3)n(-c3ccc(NC(=O)c4c(F)cccc4F)cn3)n2)oc1=O` [Example 29, N-(6-(5-Cyclopropyl-3-(4-methyl-5-oxo-4,5-dihydro-1,3,4-oxadiazol-2-yl)-1H-pyrazol-1-yl)pyridin-3-yl)-2,6-difluorobenzamide] the value was 100 to 1000 nM. The result for `Cn1nc(-c2cc(C3CC3)nn2-c2ccc(NC(=O)c3c(F)cccc3F)cn2)oc1=O` [Example 30, N-(6-(3-Cyclopropyl 5-(4-methyl-5-oxo-4,5-dihydro-1,3,4-oxadiazol-2-yl)-1H-pyrazol-1-yl)pyridin-3-yl)-2,6-difluorobenzamide] reads 100 to 1000 nM; that for `Cc1cc(-c2nn(C)c(=O)o2)nn1-c1ccc(NC(=O)c2c(F)cccc2F)cn1` [Example 31, 2,6-Difluoro-N-(6-(5-methyl-3-(4-methyl-5-oxo-4,5-dihydro-1,3,4-oxadiazol-2-yl)-1H-pyrazol-1-yl)pyridin-3-yl)benzamide], more than 1000 nM; that for `Cc1cc(-c2nn(C)c(=O)o2)nn1-c1ccc(NCc2c(F)cccc2F)cn1` [Example 32, 5-(1-(5-((2,6-Difluorobenzyl)amino)pyridin-2-yl)-5-methyl-1H-pyrazol-3-yl)-3-methyl-1,3,4-oxadiazol-2(3H)-one], less than 100 nM. For `CC1(CO)CC(c2cc(C(F)(F)F)n(-c3ccc(NCc4c(F)cccc4F)cn3)n2)=NO1` (stereo not shown) [Example 33, (3-(1-(5-((2,6-Difluorobenzyl)amino)pyridin-2-yl)-5-(trifluoromethyl)-1H-pyrazol-3-yl)-5-methyl-4,5-dihydroisoxazol-5-yl)methanol] the value was less than 100 nM; for `CC1(CO)CC(c2cc(C(F)(F)F)n(-c3ccc(NCc4c(F)cccc4Cl)cn3)n2)=NO1` (stereo not shown) [Example 34, (3-(1-(5-((2-Chloro-6-fluorobenzyl)amino)pyridin-2-yl)-5-(trifluoromethyl)-1H-pyrazol-3-yl)-5-methyl-4,5-dihydroisoxazol-5-yl)methanol], 100 to 1000 nM. For `COC(=O)C1(C)CC(c2cc(C(F)(F)F)n(-c3ccc(NC(=O)c4c(F)cccc4F)cn3)n2)=NO1` (stereo not shown) [Example 35, Methyl 3-(1-(5-(2,6-difluorobenzamido)pyridin-2-yl)-5-(trifluoromethyl)-1H-pyrazol-3-yl)-5-methyl-4,5-dihydroisoxazole-5-carboxylate], the IC50 fell in the range of 100 to 1000 nM. For `CC1(CO)CC(c2cc(C(F)(F)F)n(-c3ccc(NC(=O)c4c(F)cccc4F)cn3)n2)=NO1` (stereo not shown) [Example 36, 2,6-Difluoro-N-(6-(3-(5-(hydroxymethyl)-5-methyl-4,5-dihydroisoxazol-3-yl)-5-(trifluoromethyl)-1H-pyrazol-1-yl)pyridin-3-yl)benzamide] the value was less than 100 nM; for `CC1(C(N)=O)CC(c2cc(C(F)(F)F)n(-c3ccc(NC(=O)c4c(F)cccc4F)cn3)n2)=NO1` (stereo not shown) [Example 37, 3-(1-(5-(2,6-Difluorobenzamido)pyridin-2-yl)-5-(trifluoromethyl)-1H-pyrazol-3-yl)-5-methyl-4,5-dihydroisoxazole-5-carboxamide], less than 100 nM. The result for `Cn1nc(-c2cc(C(F)(F)F)n(-c3ccc(NC(=O)c4c(F)cccc4F)nc3)n2)oc1=O` [Example 38, 2,6-Difluoro-N-(5-(3-(4-methyl-5-oxo-4,5-dihydro-1,3,4-oxadiazol-2-yl)-5-(trifluoromethyl)-1H-pyrazol-1-yl)pyridin-2-yl)benzamide] reads less than 100 nM; that for `Cn1nc(-c2cc(C(F)(F)F)n(-c3ccc(NC(=O)c4c(F)cccc4Cl)nc3)n2)oc1=O` [Example 39, 2-Chloro-6-fluoro-N-(5-(3-(4-methyl-5-oxo-4,5-dihydro-1,3,4-oxadiazol-2-yl)-5-(trifluoromethyl)-1H-pyrazol-1-yl)pyridin-2-yl)benzamide], less than 100 nM; that for `Cc1cccc(F)c1C(=O)Nc1ccc(-n2nc(-c3nn(C)c(=O)o3)cc2C(F)(F)F)cn1` [Example 40, 2-Fluoro-6-methyl-N-(5-(3-(4-methyl-5-oxo-4,5-dihydro-1,3,4-oxadiazol-2-yl)-5-(trifluoromethyl)-1H-pyrazol-1-yl)pyridin-2-yl)benzamide], less than 100 nM. For `Cn1nc(-c2cc(C(F)(F)F)n(-c3ccc(NC(=O)c4ccccc4F)nc3)n2)oc1=O` [Example 41, 2-Fluoro-N-(5-(3-(4-methyl-5-oxo-4,5-dihydro-1,3,4-oxadiazol-2-yl)-5-(trifluoromethyl)-1H-pyrazol-1-yl)pyridin-2-yl)benzamide] the value was less than 100 nM; for `Cn1nc(-c2cc(C(F)(F)F)n(-c3ccc(NC(=O)c4cccc(F)c4F)nc3)n2)oc1=O` [Example 42, 2,3-Difluoro-N-(5-(3-(4-methyl-5-oxo-4,5-dihydro-1,3,4-oxadiazol-2-yl)-5-(trifluoromethyl)-1H-pyrazol-1-yl)pyridin-2-yl)benzamide], less than 100 nM; for `Cn1nc(-c2cc(C(F)(F)F)n(-c3ccc(NC(=O)c4cc(F)c(F)cc4F)nc3)n2)oc1=O` [Example 43, 2,4,5-Trifluoro-N-(5-(3-(4-methyl-5-oxo-4,5-dihydro-1,3,4-oxadiazol-2-yl)-5-(trifluoromethyl)-1H-pyrazol-1-yl)pyridin-2-yl)benzamide], less than 100 nM. In turn, `Cn1nc(-c2cc(C(F)(F)F)n(-c3ccc(NC(=O)c4ccc(F)c(F)c4F)nc3)n2)oc1=O` [Example 44, 2,3,4-Trifluoro-N-(5-(3-(4-methyl-5-oxo-4,5-dihydro-1,3,4-oxadiazol-2-yl)-5-(trifluoromethyl)-1H-pyrazol-1-yl)pyridin-2-yl)benzamide] gave a half-maximal inhibitory concentration (IC50) of less than 100 nM.

In turn, `Cn1nc(-c2cc(C(F)(F)F)n(-c3ccc(NC(=O)c4ccc(F)cc4F)nc3)n2)oc1=O` [Example 45, 2,4-Difluoro-N-(5-(3-(4-methyl-5-oxo-4,5-dihydro-1,3,4-oxadiazol-2-yl)-5-(trifluoromethyl)-1H-pyrazol-1-yl)pyridin-2-yl)benzamide] registered a 50% inhibitory concentration (IC50) of less than 100 nM. For `Cc1cccc(C(=O)Nc2ccc(-n3nc(-c4nn(C)c(=O)o4)cc3C(F)(F)F)cn2)c1C` [Example 46, 2,3-Dimethyl-N-(5-(3-(4-methyl-5-oxo-4,5-dihydro-1,3,4-oxadiazol-2-yl)-5-(trifluoromethyl)-1H-pyrazol-1-yl)pyridin-2-yl)benzamide] the value was less than 100 nM. The result for `Cn1nc(-c2cc(C(F)(F)F)n(-c3ccc(NC(=O)c4ccccc4Cl)nc3)n2)oc1=O` [Example 47, 2-Chloro-N-(5-(3-(4-methyl-5-oxo-4,5-dihydro-1,3,4-oxadiazol-2-yl)-5-(trifluoromethyl)-1H-pyrazol-1-yl)pyridin-2-yl)benzamide] reads less than 100 nM; that for `Cc1ccccc1C(=O)Nc1ccc(-n2nc(-c3nn(C)c(=O)o3)cc2C(F)(F)F)cn1` [Example 48, 2-Methyl-N-(5-(3-(4-methyl-5-oxo-4,5-dihydro-1,3,4-oxadiazol-2-yl)-5-(trifluoromethyl)-1H-pyrazol-1-yl)pyridin-2-yl)benzamide], less than 100 nM; that for `CCc1ccc(C(=O)Nc2ccc(-n3nc(-c4nn(C)c(=O)o4)cc3C(F)(F)F)cn2)cc1` [Example 49, 4-Ethyl-N-(5-(3-(4-methyl-5-oxo-4,5-dihydro-1,3,4-oxadiazol-2-yl)-5-(trifluoromethyl)-1H-pyrazol-1-yl)pyridin-2-yl)benzamide], 100 to 1000 nM.

In turn, `Cn1nc(-c2cc(C(F)(F)F)n(-c3ccc(NC(=O)c4ccc5ccccc5c4)nc3)n2)oc1=O` [Example 50, N-(5-(3-(4-Methyl-5-oxo-4,5-dihydro-1,3,4-oxadiazol-2-yl)-5-(trifluoromethyl)-1H-pyrazol-1-yl)pyridin-2-yl)-2-naphthamide] had a half-inhibitory concentration (IC50) of 100 to 1000 nM. The result for `Cn1nc(-c2cc(C(F)(F)F)n(-c3ccc(NCc4c(F)cccc4F)nc3)n2)oc1=O` [Example 51, 5-(1-(6-((2,6-Difluorobenzyl)amino)pyridin-3-yl)-5-(trifluoromethyl)-1H-pyrazol-3-yl)-3-methyl-1,3,4-oxadiazol-2(3H)-one] reads less than 100 nM. `Cn1nc(-c2cc(C(F)(F)F)n(-c3ccc(NCc4c(F)cccc4Cl)nc3)n2)oc1=O` [Example 52] registered a half-maximal inhibitory concentration (IC50) of less than 100 nM.

`Cc1cccc(F)c1CNc1ccc(-n2nc(-c3nn(C)c(=O)o3)cc2C(F)(F)F)cn1` [Example 53, 5-(1-(6-((2-Fluoro-6-methylbenzyl)amino)pyridin-3-yl)-5-(trifluoromethyl)-1H-pyrazol-3-yl)-3-methyl-1,3,4-oxadiazol-2(3H)-one] showed an IC50 of less than 100 nM.

In the case of `Cn1nc(-c2cc(C(F)(F)F)n(-c3ccc(C(=O)Nc4c(F)cccc4F)cn3)n2)oc1=O` [Example 54, N-(2,6-Difluorophenyl)-6-(3-(4-methyl-5-oxo-4,5-dihydro-1,3,4-oxadiazol-2-yl)-5-(trifluoromethyl)-1H-pyrazol-1-yl)nicotinamide], the IC50 is 100 to 1000 nM.

Take `Cn1nc(-c2cc(C(F)(F)F)n(-c3ccc(C(=O)Nc4c(F)cccc4Cl)cn3)n2)oc1=O` [Example 55, N-(2-Chloro-6-fluorophenyl)-6-(3-(4-methyl-5-oxo-4,5-dihydro-1,3,4-oxadiazol-2-yl)-5-(trifluoromethyl)-1H-pyrazol-1-yl)nicotinamide]: the IC50 was less than 100 nM.
